In patent EP2022493A1, “Composition comprising at least one optically active phthalamide derivative for controlling animal parasites” (Bayer CropScience AG, priority 2007, dated 2009):

Columns and labels:
Musca domestica = Musca domestica - test; format: in vivo; conditions: application rate of 100ppm, adults
Description: (§1) Solvent: dimethyl sulfoxide
(§2) To produce a suitable preparation of active compound, 10 mg of active compound are dissolved in 0.5 ml solvent, and the concentrate is diluted with water to the desired concentration.
Prior to the assay, a piece or kitchen sponge is soaked with a mixture of sugar and compound solution and placed into a container. 10 adults (Musca domestica) are placed into the container and closed with a perforated lid.
After the specified period of time, mortality in % is determined. 100 % means that all the flies have been killed; 0 % means that none of the flies have been killed.

Lucilia cuprina larvae = experiment: Lucilia cuprina - test (larvae); format: in vivo; conditions: in Ovis aries, read-out: activity (mortality in %)
Description: as §1, §2
Approximately 20 -30 (Lucilia cuprina larvae) are transferred into a test tube containing 1cm^3 of minced horse meat and 0.5 ml aqueous dilution of test compound.
After the specified period of time, mortality in % is determined. 100 % means that all the larvae have been killed; 0 % means that none of the larvae have been killed.

Boophilus microplus = Boophilus microplus - test (injection into adult ticks); format: in vivo; conditions: application rate of 20 µg/animal; injected into the abdomen of adult ticks; seven days
Description: Boophilus microplus - test Solvent: dimethylsulfoxide To produce a suitable preparation of active compound, 1 part by weight of active compound is mixed with the stated amount of solvent, and the concentrate is diluted with containing solvent to the desired concentration. Adult ticks (Boophilus microplus) are treated by injected with compound solution of the desired concentration into the abdomen. Ticks are transferred into replica plates and incubated in a climate chamber for seven days. Eggs which are not clearly fertile or infertile are further incubated for another 35 days until larvae hatch from the untreated controls. After the specified period of time, the laying of fertile eggs in % is determined. 100 % means that all eggs have been fertile; 0 % means that none of the eggs have been fertile.

[1] = Determination of the logP values by HPLC on reversed-phase column (C 18); format: physicochemical
Description: Determination of the logP values:
The lambda max values were determined in the maxima of the chromatographic signals using the UV spectra from 190 nm to 400 nm.

[2] = 0.1% aqueous phosphoric acid/acetonitrile, method [a]: 0.1% aqueous phosphoric acid and acetonitrile at pH 2.3, linear gradient from 10 to 95 % (v/v) acetonitrile, HPLC reversed-phase C 18, 40 °C
[3] = 0.001 m aqueous nh4hco3/acetonitrile, method [c]: 0.001 molar aqueous NH4HCO3 solution and acetonitrile at pH 7.8, linear gradient from 10 % to 95 % acetonitrile (v/v), HPLC reversed-phase C 18, 40 °C
[4] = 0.001 m aqueous nh4hco3/acetonitrile, HPLC, reversed-phase C 18, 40 °C, [c] 0.001 molar aqueous NH4HCO3 solution and acetonitrile at pH 7.8, linear gradient from 10 % to 95 % acetonitrile (v/v)
[5] = 0.1% aqueous phosphoric acid/acetonitrile, HPLC, reversed-phase C 18, 40 °C, [a] 0.1% aqueous phosphoric acid and acetonitrile at pH 2.3, linear gradient from 10 to 95 % (v/v) acetonitrile

Row | SMILES | mortality at 100 ppm (Musca domestica) [%] | mortality at 100 ppm (Lucilia cuprina larvae) [%] | activity (laying of fertile eggs in %) (Boophilus microplus) [%] | chromatographic logP [1, 2] | chromatographic logP [1, 3] | chromatographic logP [1, 4] | chromatographic logP [1, 5] | chromatographic logP ([1]; 0.1% aqueous formic acid/acetonitrile, HPLC, reversed-phase C 18, 40 °C, [b] 0.1% aqueous formic acid and acetonitrile at pH 2.7, linear gradient from 10 % to 95 % (v/v) acetonitrile)
1 | CCS(=O)(=O)C[C@H](C)NC(=O)c1c(I)cccc1C(=O)Nc1ccc(C(C(F)(F)F)C(F)(F)F)cc1C [Compound 23] | ≥ 80 | ≥ 80 |  |  |  |  |  | 
2 | CSC[C@H](C)NC(=O)c1c(I)cccc1C(=O)Nc1ccc(C(C(F)(F)F)C(F)(F)F)cc1C [Compound 24] | ≥ 80 | ≥ 80 | ≥ 80 |  |  |  |  | 
3 | Cc1cc(C(C(F)(F)F)C(F)(F)F)ccc1NC(=O)c1cccc(I)c1C(=O)N[C@@H](C)CS(C)(=O)=O [Compound 48] | ≥ 80 | ≥ 80 | ≥ 80 |  |  |  |  | 
4 | Cc1cc(C(C(F)(F)F)C(F)(F)F)ccc1NC(=O)c1cccc(I)c1C(=O)N[C@@H](C)C[S+](C)[O-] (stereo partly shown) [Compound 56] | ≥ 80 | ≥ 80 | ≥ 80 |  |  |  |  | 
5 | CCSC[C@H](C)NC(=O)c1c(I)cccc1C(=O)Nc1ccc(C(F)(C(F)(F)F)C(F)(F)F)c(F)c1C [Compound 105] |  | ≥ 80 | ≥ 80 | 4.71 |  |  |  | 
6 | Cc1cc(C(F)(C(F)(F)F)C(F)(F)F)ccc1NC(=O)c1cccc(Br)c1C(=O)N[C@@H](C)CS(C)(=O)=O [Compound 129] |  | ≥ 80 | ≥ 80 |  |  |  |  | 
7 | CCS(=O)(=O)C[C@H](C)NC(=O)c1c(I)cccc1C(=O)Nc1ccc(C(F)(C(F)(F)F)C(F)(F)F)c(F)c1C [Compound 130] | ≥ 80 | ≥ 80 |  | 3.47 |  |  |  | 
8 | CCS(=O)(=O)C[C@H](C)NC(=O)c1c(Br)cccc1C(=O)Nc1ccc(C(F)(F)C(F)(F)F)c(Cl)c1C [Compound 138] |  | ≥ 80 | ≥ 80 | 3.19 |  |  |  | 
9 | CCS(=O)(=O)C[C@H](C)NC(=O)c1c(I)cccc1C(=O)Nc1ccc(C(F)(F)C(F)(F)F)c(Cl)c1C [Compound 145] |  | ≥ 80 |  |  |  |  |  | 
10 | CSC[C@H](C)NC(=O)c1c(I)cccc1C(=O)Nc1ccc(C(F)(F)C(F)(F)F)c(F)c1C [Compound 146] |  | ≥ 80 | ≥ 80 | 4.04 |  |  |  | 
11 | CCSC[C@H](C)NC(=O)c1c(I)cccc1C(=O)Nc1ccc(C(F)(C(F)(F)F)C(F)(F)Br)cc1C (stereo partly shown) [Compound 154] |  | ≥ 80 | ≥ 80 | 4.68 | 4.71 |  |  | 
12 | Cc1c(NC(=O)c2cccc(I)c2C(=O)N[C@@H](C)CS(C)(=O)=O)ccc(C(F)(F)C(F)(F)F)c1F [Compound 162] | ≥ 80 | ≥ 80 |  | 2.97 |  |  |  | 
13 | CSC[C@H](C)NC(=O)c1c(I)cccc1C(=O)Nc1ccc(C(F)(F)C(F)(F)F)c(Cl)c1C [Compound 170] |  | ≥ 80 | ≥ 80 | 4.2 |  |  |  | 
14 | Cc1c(NC(=O)c2cccc(I)c2C(=O)N[C@@H](C)CS(C)(=O)=O)ccc(C(F)(C(F)(F)F)C(F)(F)F)c1F [Compound 178] | ≥ 80 | ≥ 80 |  | 3.27 |  |  |  | 
15 | Cc1c(NC(=O)c2cccc(I)c2C(=O)N[C@@H](C)CS(C)(=O)=O)ccc(C(F)(F)C(F)(F)F)c1Cl [Compound 186] |  | ≥ 80 |  |  |  |  |  | 
16 | CCS(=O)(=O)C[C@H](C)NC(=O)c1c(I)cccc1C(=O)Nc1ccc(C(F)(C(F)(F)F)C(F)(F)Br)cc1C (stereo partly shown) [Compound 194] |  |  |  |  |  | 3.47 | 3.49 | 
17 | CCSC[C@H](C)NC(=O)c1c(I)cccc1C(=O)Nc1ccc(C(C(F)F)C(F)(F)F)cc1F (stereo partly shown) [Compound 219] | ≥ 80 |  | ≥ 80 |  |  | 3.57 | 3.57 | 
18 | C[C@@H](CS(C)(=O)=O)NC(=O)c1c(I)cccc1C(=O)Nc1ccc(C(C(F)F)C(F)(F)F)cc1Cl (stereo partly shown) [Compound 259] | ≥ 80 | ≥ 80 |  |  |  | 2.72 | 2.69 | 
19 | CSC[C@H](C)NC(=O)c1c(Br)cccc1C(=O)Nc1ccc(C(F)(C(F)F)C(F)(F)F)cc1Br (stereo partly shown) [Compound 267] |  | ≥ 80 | ≥ 80 |  |  |  | 3.81 | 
20 | C[C@@H](CS(C)(=O)=O)NC(=O)c1c(I)cccc1C(=O)Nc1ccc(C(C(F)F)C(F)(F)F)cc1Br (stereo partly shown) [Compound 275] | ≥ 80 | ≥ 80 |  |  |  | 2.76 | 2.71 | 
21 | C[C@@H](CS(C)(=O)=O)NC(=O)c1c(I)cccc1C(=O)Nc1ccc(C(F)(C(F)F)C(F)(F)F)cc1F (stereo partly shown) [Compound 283] | ≥ 80 | ≥ 80 |  |  |  | 2.76 | 2.72 | 
22 | CCS(=O)(=O)C[C@H](C)NC(=O)c1c(I)cccc1C(=O)Nc1ccc(C(F)(C(F)F)C(F)(F)F)cc1F (stereo partly shown) [Compound 307] | ≥ 80 | ≥ 80 |  |  |  | 2.94 | 2.89 | 
23 | Cc1c(NC(=O)c2cccc(I)c2C(=O)N[C@@H](C)C[S+](C)[O-])ccc(C(F)(C(F)(F)F)C(F)(F)F)c1F (stereo partly shown) [Compound 331] |  | ≥ 80 | ≥ 80 |  |  |  | 2.78 | 
24 | CC[S+]([O-])C[C@H](C)NC(=O)c1c(I)cccc1C(=O)Nc1ccc(C(F)(C(F)(F)F)C(F)(F)F)c(F)c1C (stereo partly shown) [Compound 339] |  | ≥ 80 | ≥ 80 |  |  |  | 2.97 | 
25 | CCS(=O)(=O)C[C@H](C)NC(=O)c1c(Cl)cccc1C(=O)Nc1ccc(C(F)(F)C(F)(F)F)c(Cl)c1C [Compound 347] |  | ≥ 80 | ≥ 80 |  |  |  | 3.14 | 
26 | CSC[C@H](C)NC(=O)c1c(Cl)cccc1C(=O)Nc1ccc(C(F)(F)C(F)(F)F)c(F)c1C [Compound 355] |  | ≥ 80 | ≥ 80 |  |  |  |  | 3.94
27 | CCSC[C@H](C)NC(=O)c1c(Cl)cccc1C(=O)Nc1ccc(C(F)(F)C(F)(F)F)c(F)c1C [Compound 380] |  |  |  | 4.21 |  |  |  | 
28 | CSC[C@H](C)NC(=O)c1c(Br)cccc1C(=O)Nc1ccc(C(F)(F)C(F)(F)F)c(F)c1C [Compound 388] |  | ≥ 80 | ≥ 80 | 3.93 |  |  |  | 
29 | Cc1c(NC(=O)c2cccc(Br)c2C(=O)N[C@@H](C)CS(C)(=O)=O)ccc(C(F)(F)C(F)(F)F)c1F [Compound 389] |  | ≥ 80 | ≥ 80 | 2.86 |  |  |  | 
30 | Cc1cc(C(C(F)(F)F)C(F)(F)F)c(F)cc1NC(=O)c1cccc(Br)c1C(=O)N[C@@H](C)C[S+](C)[O-] (stereo partly shown) [Compound 422] |  | ≥ 80 | ≥ 80 | 2.58 | 2.51 |  |  | 
